Laboratory results from paper PMC8298633, “Cannabis constituents interact at the drug efflux pump BCRP to markedly increase plasma cannabidiolic acid concentrations” (Scientific Reports, 2021).
“And” between values parts separate entries of the source, which are not always exact repeats. Equal values may be shown once.

What was measured:
[1] = Bidirectional transwell transport assay, wildtype MDCK cell monolayers; details: dog, MDCK
Procedure: (§1) We first aimed to determine whether the cannabinoids found in the full-spectrum cannabis extract were substrates of P-glycoprotein and BCRP by using MDCK cells expressing human P-glycoprotein or BCRP in vitro. Transwell assays were conducted to assess bidirectional transport of the cannabinoids detected in plasma following administration of the full-spectrum cannabis extract (CBD, CBDA, CBDVA, CBGA, Δ^9-THC and Δ^9-THCA), including the respective neutral compounds (CBDV and CBG) across wildtype, BCRP and P-glycoprotein MDCK cell monolayers. […] BCRP and P-glycoprotein preferentially transport substrates in the B > A direction.
(§2) Media in the donor chamber was then replaced with that containing 10 µM of an individual cannabinoid in the presence of either vehicle or inhibitor and returned to 37 °C. Aliquots (25 or 50 µL) were removed from the accepter chamber at 60, 120, 180 and 240 min.
(§3) Cannabinoids were analyzed as described above.

wildtype MDCK cells = assay: as above; details: wildtype MDCK cells, 10 µM cannabinoid; for P (A > B): apical to basolateral
Procedure: as §1, §2, §3

BCRP [2] = target: T1, BCRP (Homo sapiens, UniProt Q9UNQ0); assay: Bidirectional transwell substrate assay, MDCK cells expressing BCRP (with or without elacridar); details: for P (A > B) / P (B > A) / r (transport efflux ratio) / efflux ratio at 240 min, 10 µM: BCRP MDCK cells; for P (A > B): apical to basolateral; for P (B > A): basolateral to apical; for BCRP substrate status: human BCRP MDCK cells vs wildtype, with elacridar control; for efflux ratio at 240 min, 10 µM: human, r (transport efflux ratio)
T1 sequence (Q9UNQ0 1-655): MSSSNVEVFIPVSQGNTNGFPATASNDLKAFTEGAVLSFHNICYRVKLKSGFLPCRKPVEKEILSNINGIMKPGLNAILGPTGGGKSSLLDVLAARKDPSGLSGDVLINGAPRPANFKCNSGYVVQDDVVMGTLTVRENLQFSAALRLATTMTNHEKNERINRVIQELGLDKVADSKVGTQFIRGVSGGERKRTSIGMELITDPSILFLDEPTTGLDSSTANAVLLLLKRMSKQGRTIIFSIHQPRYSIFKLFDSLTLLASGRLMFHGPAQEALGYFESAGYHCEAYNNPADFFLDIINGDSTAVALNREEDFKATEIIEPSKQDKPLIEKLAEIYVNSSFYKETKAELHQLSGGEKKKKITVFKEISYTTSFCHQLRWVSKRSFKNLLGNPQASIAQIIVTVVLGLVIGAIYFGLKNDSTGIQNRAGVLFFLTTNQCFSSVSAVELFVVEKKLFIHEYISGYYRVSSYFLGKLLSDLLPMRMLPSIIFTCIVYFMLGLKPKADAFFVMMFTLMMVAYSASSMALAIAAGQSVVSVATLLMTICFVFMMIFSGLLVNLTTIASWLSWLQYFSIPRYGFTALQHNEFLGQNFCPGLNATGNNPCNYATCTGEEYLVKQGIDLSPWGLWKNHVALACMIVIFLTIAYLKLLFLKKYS
Procedure: as §1, §2, §3

BCRP [3] = target: T1, BCRP; assay: Inhibition of BCRP-mediated transport of CBDA by cannabinoids (transwell, BCRP MDCK cells)
Procedure: Cannabinoids were tested at 10 µM. […] Data are expressed as means ± SEM, with n = 4 per time point. […] Schematic created using BioRender.com.
as §3

Bcrp1 = details: mouse Bcrp1; cited from earlier work
BCRP [4] = target: T1, BCRP; assay: Inhibition of BCRP-mediated transport of prazosin (transwell, BCRP MDCK cells); details: for Effect on BCRP-mediated transport of prazosin: 10 µM, compared to vehicle
P-glycoprotein = P-glycoprotein (Homo sapiens, UniProt P08183); assay: Bidirectional transwell substrate assay, MDCK cells expressing P-glycoprotein; details: for P (A > B): apical to basolateral; for P (B > A): basolateral to apical; for P-glycoprotein substrate status: human P-glycoprotein MDCK cells vs wildtype
Sequence of P-glycoprotein (P08183 whole entry): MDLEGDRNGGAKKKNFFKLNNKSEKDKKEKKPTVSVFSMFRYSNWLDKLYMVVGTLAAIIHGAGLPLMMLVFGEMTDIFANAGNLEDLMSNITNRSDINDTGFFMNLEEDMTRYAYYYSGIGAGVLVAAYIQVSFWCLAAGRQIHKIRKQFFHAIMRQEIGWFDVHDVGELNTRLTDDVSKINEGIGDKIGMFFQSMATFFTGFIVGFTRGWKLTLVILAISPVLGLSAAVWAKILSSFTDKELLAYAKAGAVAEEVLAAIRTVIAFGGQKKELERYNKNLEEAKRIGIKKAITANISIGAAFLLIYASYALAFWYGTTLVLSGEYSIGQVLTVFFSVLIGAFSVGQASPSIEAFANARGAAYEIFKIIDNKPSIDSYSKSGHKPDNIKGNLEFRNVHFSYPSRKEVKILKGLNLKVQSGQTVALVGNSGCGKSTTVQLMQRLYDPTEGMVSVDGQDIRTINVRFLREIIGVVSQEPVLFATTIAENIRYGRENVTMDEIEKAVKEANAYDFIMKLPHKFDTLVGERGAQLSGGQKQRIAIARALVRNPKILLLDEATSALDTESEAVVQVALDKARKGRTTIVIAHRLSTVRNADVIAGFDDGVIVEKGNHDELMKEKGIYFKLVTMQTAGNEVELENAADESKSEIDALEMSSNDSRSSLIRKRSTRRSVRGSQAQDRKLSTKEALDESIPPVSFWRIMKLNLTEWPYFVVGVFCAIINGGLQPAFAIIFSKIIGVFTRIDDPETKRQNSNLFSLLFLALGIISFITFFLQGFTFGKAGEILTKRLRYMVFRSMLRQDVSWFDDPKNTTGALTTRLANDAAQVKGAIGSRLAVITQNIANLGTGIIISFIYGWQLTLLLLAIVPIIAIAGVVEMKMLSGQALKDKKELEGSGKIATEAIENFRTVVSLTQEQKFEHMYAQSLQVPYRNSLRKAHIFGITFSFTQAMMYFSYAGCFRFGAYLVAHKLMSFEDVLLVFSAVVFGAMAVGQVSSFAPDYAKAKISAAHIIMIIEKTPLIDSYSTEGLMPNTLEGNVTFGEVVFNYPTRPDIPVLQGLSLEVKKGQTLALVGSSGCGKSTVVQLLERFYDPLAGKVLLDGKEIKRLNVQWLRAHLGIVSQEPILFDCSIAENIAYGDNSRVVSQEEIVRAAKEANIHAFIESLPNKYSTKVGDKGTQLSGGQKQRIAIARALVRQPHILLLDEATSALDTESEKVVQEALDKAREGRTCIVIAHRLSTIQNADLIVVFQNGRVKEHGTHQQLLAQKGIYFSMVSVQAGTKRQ
Procedure: as §1, §2, §3

[5] = Pharmacokinetic study: plasma cannabinoids after single oral gavage of full-spectrum cannabis extract or individual cannabinoid; details: for half-life: t1/2, mouse plasma; for Detection in plasma following oral administration of the full-spectrum extract: single oral dose of extract
Procedure: Drugs were administered by oral gavage in a volume of 5 mL/kg. Wildtype male and female mice (postnatal day 21–28, P21-28) received a single oral gavage of either the full-spectrum cannabis extract or an individual cannabinoid. Cannabinoid doses within the full-spectrum extract or as an individual cannabinoid were as follows in mg/kg: CBDA and Δ^9-THCA, 50; CBD, 25; Δ^9-THC, 15; CBC, 9; CBDVA and CBGA, 7; CBN, 2.5; CBG, 1.5; CBDV and Δ^9-THCV, < 1 (Fig. 1a). At selected time points (15–240 min), mice were anesthetized with isoflurane and whole blood was collected by cardiac puncture. Plasma was isolated by centrifugation (9000 g for 10 min, 4 °C) and stored at − 80 °C until assayed.
Concentrations of cannabinoids in plasma samples were quantified as described previously, [24], [58]. […] The organic layer was isolated by centrifugation (4000 g for 10 min) and evaporated to dryness with N2. Samples were reconstituted in acetonitrile and 0.1% formic acid in water (1:3.3, v/v) for supported-liquid extraction (SLE) with methyl tert-butyl ether (MTBE) using Biotage Isolute SLE+ columns (Uppsala, SWE). […] Quantification of cannabinoids was achieved by comparing samples to standards prepared with known amounts of drug.
Plasma concentrations at each time point were averaged and pharmacokinetic parameters were calculated by noncompartmental analysis. Elimination rate constants were determined by linear regression of the terminal component of the concentration–time curve using GraphPad Prism 8.2 (La Jolla, USA). The log-linear trapezoidal method was used to calculated total drug exposure (area under concentration–time curve) using equations described previously.

[6] = parameters: method as in PMID 33155722; details: healthy individuals, oral cannabis decoction and oil containing 3–6 times the amount of CBDA compared to CBD; cited from earlier work
[7] = 10 µM cannabinoid, substrate threshold 1.5
[8] = with elacridar 10 µM, 10 µM cannabinoid in the presence of 10 µM elacridar
[9] = P-glycoprotein MDCK cells, 10 µM cannabinoid
[10] = both, mouse, plasma, po, AUC, mouse plasma, oral, administered as individual cannabinoid, doses mg/kg: CBD 25, CBDA 50, CBDVA 7, THC 15, THCA 50
[11] = both, mouse, plasma, po, AUC, mouse plasma, oral, administered in full-spectrum extract, doses mg/kg: CBD 25, CBDA 50, CBDVA 7, CBGA 7, THC 15, THCA 50
[12] = both, mouse, plasma, po, oral, administered as individual cannabinoid, doses mg/kg: CBD 25, CBDA 50, CBDVA 7, THC 15, THCA 50
[13] = both, mouse, plasma, po, oral, administered in full-spectrum extract, doses mg/kg: CBD 25, CBDA 50, CBDVA 7, CBGA 7, THC 15, THCA 50
[14] = both, mouse, plasma, po, tmax, mouse plasma, oral, administered as individual cannabinoid, doses mg/kg: CBD 25, CBDA 50, CBDVA 7, CBGA 7, THC 15, THCA 50
[15] = both, mouse, plasma, po, tmax, mouse plasma, oral, administered in full-spectrum extract, doses mg/kg: CBD 25, CBDA 50, CBDVA 7, CBGA 7, THC 15, THCA 50
[16] = mouse plasma, oral, equivalent doses
[17] = BCRP MDCK cells, cannabinoids tested at 10 µM
[18] = mouse plasma, oral, administered as individual cannabinoid, doses mg/kg: CBD 25, CBDA 50, CBDVA 7, THC 15, THCA 50
[19] = mouse plasma, oral, administered in full-spectrum extract, doses mg/kg: CBD 25, CBDA 50, CBDVA 7, CBGA 7, THC 15, THCA 50

Compound	Papp B→A at 240 min, 10 µM [1] [×10⁻⁶ cm/s]	efflux ratio at 240 min, 10 µM [1]	P (A > B) (wildtype MDCK cells)	P (A > B) (BCRP [2]; 10 µM cannabinoid)	P (B > A) (BCRP [2]; 10 µM cannabinoid)	r (transport efflux ratio) (BCRP [2]; [7])	BCRP substrate status (BCRP [2])	efflux ratio at 240 min, 10 µM (BCRP [2]; [8])	Effect on BCRP-mediated transport of prazosin (BCRP [4])	P (A > B) (P-glycoprotein; [9])	P (B > A) (P-glycoprotein; [9])	P-glycoprotein substrate status (P-glycoprotein)	AUC [5, 10] [ng·h/mL]	AUC [5, 11] [ng·h/mL]	half-life [5, 12] [min]	half-life [5, 13] [min]	tmax [5, 14] [h]	tmax [5, 15] [h]	Total plasma exposure in full-spectrum extract relative to individual compound, fold lower [5, 16]	Detection in plasma following oral administration of the full-spectrum extract ([5]; mouse plasma)	other results
C=C(C)[C@@H]1CCC(C)=C[C@H]1c1c(O)cc(CCCCC)cc1O [CBD, cannabidiol]	250 ± 30	0.6 ± 0.2	41 ± 5 × 10^−5 cm/s	52 ± 8 × 10^−5 cm/s	86 ± 20 × 10^−5 cm/s	1.6 ± 0.3	BCRP substrates	1 ± 0.2	identified as an inhibitor of BCRP	25 ± 7 × 10^−5 cm/s	15 ± 3 × 10^−5 cm/s	not P-glycoprotein substrates	1730	717	217	484	1.5	≤ 1	2–4 ×	detected	efflux ratio at 240 min, 10 µM (BCRP [2]; [7]): > 1.5; Effect on BCRP-mediated transport of CBDA (BCRP [3]; 10 µM, BCRP MDCK cells, compared to vehicle): Neither CBD nor CBDVA affected CBDA transport via BCRP; r (transport efflux ratio) of CBDA in the presence of inhibitor (BCRP [3]; human, 240 min, 10 µM): 5.9 ± 0.1; Bcrp1 substrate status (Bcrp1): not a substrate of mouse Bcrp1; Cmax ([5]; both, mouse, plasma, po, 25 mg/kg, Cmax, mouse plasma, oral, administered as individual cannabinoid, doses mg/kg: CBD 25, THC 15, THCA 50): 304 ± 28 ng/mL; Cmax ([5]; both, mouse, plasma, po, 25 mg/kg, Cmax, mouse plasma, oral, administered in full-spectrum extract, doses mg/kg: CBD 25, THC 15, THCA 50): 60 ± 6 ng/mL
C=C(C)[C@@H]1CCC(C)=C[C@H]1c1c(O)cc(CCCCC)c(C(=O)O)c1O [CBDA, cannabidiolic acid]	370 ± 90	1.2 ± 0.3	31 ± 8 × 10^−5 cm/s	38 ± 11 × 10^−5 cm/s	162 ± 24 × 10^−5 cm/s		BCRP substrates	0.4 ± 0.4		24 ± 7 × 10^−5 cm/s	38 ± 4 × 10^−5 cm/s	not P-glycoprotein substrates	27300	380000	198	310	1.5	≤ 1		detected	Serum CBDA concentrations relative to serum CBD concentrations [6]: 20–30 times; r (transport efflux ratio) (P-glycoprotein; P-glycoprotein MDCK cells, 10 µM cannabinoid, substrate threshold 2.5): 1.5 ± 0.3; efflux ratio at 240 min, 10 µM (P-glycoprotein; human, MDCK-MDR1, r (transport efflux ratio), P-glycoprotein MDCK cells, 10 µM cannabinoid, substrate threshold 2.5): < 2.5; Cmax ([5]; both, mouse, plasma, po, Cmax, mouse plasma, oral, administered as individual cannabinoid, doses mg/kg: CBDA 50, CBDVA 7, CBGA 7): 6000 ± 1000 ng/mL; Cmax ([5]; both, mouse, plasma, po, Cmax, mouse plasma, oral, administered in full-spectrum extract, doses mg/kg: CBDA 50, CBDVA 7, CBGA 7): 47000 ± 4000 ng/mL; Total plasma exposure (AUC) in full-spectrum extract relative to individual compound, fold higher ([5]; mouse plasma, oral, 50 mg/kg, equivalent doses): ~14 × and 14 ×
CCCCCc1cc(O)c2c(c1)OC(C)(C)[C@@H]1CCC(C)=C[C@@H]21 [Δ^9-THC, Δ^9-tetrahydrocannabinol, reference compound]			9 ± 3 × 10^−5 cm/s	54 ± 17 × 10^−5 cm/s	74 ± 28 × 10^−5 cm/s	1.4 ± 0.5	weak substrates of BCRP		not prazosin transport	9 ± 3 × 10^−5 cm/s	4 ± 1 × 10^−5 cm/s	not P-glycoprotein substrates							2–4 ×	detected	r (transport efflux ratio) (wildtype MDCK cells): 0.3 ± 0.3; P (B > A) (wildtype MDCK cells; basolateral to apical): 3 ± 1 × 10^−5 cm/s; r (transport efflux ratio) (BCRP [2]; 10 µM cannabinoid in the presence of 10 µM elacridar): 0.7 ± 0.2; P (A > B) of CBDA in the presence of inhibitor (BCRP [3]; [17]): 21 ± 3 × 10^−5 cm/s; P (B > A) of CBDA in the presence of inhibitor (BCRP [3]; [17]): 47 ± 4 × 10^−5 cm/s; P (A > B) of prazosin in the presence of inhibitor (BCRP [4]; 10 µM inhibitor, 1 µM prazosin): 18 ± 2 × 10^−2 cm/s; P (B > A) of prazosin in the presence of inhibitor (BCRP [4]; 10 µM inhibitor, 1 µM prazosin): 201 ± 8 × 10^−2 cm/s; tmax ([5]; mouse plasma, oral, administered as individual cannabinoid, doses mg/kg: CBD 25, CBDA 50, CBDVA 7, CBGA 7, THC 15, THCA 50): 1.5 h; AUC [5, 18]: 1930 ng·h/mL; t1/2 [5, 18]: 210 min; Cmax ([5]; mouse plasma, oral, administered as individual cannabinoid, doses mg/kg: CBD 25, THC 15, THCA 50): 341 ± 40 ng/mL; AUC [5, 19]: 1030 ng·h/mL; t1/2 [5, 19]: 330 min; tmax [5, 19]: ≤ 1 h; tmax ([5]; mouse plasma, oral, administered in full-spectrum extract, doses mg/kg: CBD 25, CBDA 50, CBDVA 7, CBGA 7, THC 15, THCA 50, listed as THC): 1 h; Cmax ([5]; mouse plasma, oral, administered in full-spectrum extract, doses mg/kg: CBD 25, THC 15, THCA 50): 127 ± 15 ng/mL
